{"source": "BindingDB's records for PubMed 7903385", "about": "(Creighton University, 1993)", "molecular_target": "T1, Alpha-2A adrenergic receptor (Sus scrofa, UniProt P18871)", "T1 sequence (P18871 whole entry)": "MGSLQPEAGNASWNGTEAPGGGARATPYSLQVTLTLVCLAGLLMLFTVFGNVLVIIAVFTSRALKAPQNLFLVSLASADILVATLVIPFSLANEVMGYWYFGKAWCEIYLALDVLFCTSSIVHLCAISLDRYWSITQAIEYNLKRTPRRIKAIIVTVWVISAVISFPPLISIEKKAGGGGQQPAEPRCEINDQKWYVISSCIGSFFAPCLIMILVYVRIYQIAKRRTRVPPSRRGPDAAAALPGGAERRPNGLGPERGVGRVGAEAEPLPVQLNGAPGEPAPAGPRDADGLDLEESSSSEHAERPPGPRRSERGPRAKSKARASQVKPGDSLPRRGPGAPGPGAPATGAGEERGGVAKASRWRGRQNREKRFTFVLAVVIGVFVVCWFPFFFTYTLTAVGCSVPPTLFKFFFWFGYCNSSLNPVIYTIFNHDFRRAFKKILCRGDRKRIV", "data": [{"smiles": "C=Cc1sc2ccc(Cl)c3c2c1CN(C)CC3", "note": "[SKF 104856]", "values": [{"measurement": "Ki", "result": 54.5, "unit": "nM"}]}]}
